Results published in paper PMC6375636, “Monotherapy with a low-dose lipopeptide HIV fusion inhibitor maintains long-term viral suppression in rhesus macaques” (PLoS Pathogens, 2019).
Read-outs that look alike come from different tables or passages of the source. Peptide text beside a SMILES is read from it. * marks the point of attachment. Stearoyl = CCCCCCCCCCCCCCCCCC(=O)*; Palmitoyl = CCCCCCCCCCCCCCCC(=O)*

Columns and labels:
[1] = test system: HIV-1NL4-3(D36G) pseudovirus; assay type: cell-based
Experimental: (§1) The inhibitory activities of inhibitors against HIV-1 pseudoviruses and replication-competent isolates were measured as described previously. Briefly, HIV-1 pseudoviruses were generated via the cotransfection of HEK293T cells with an Env-expressing plasmid and a backbone plasmid that encodes Env-defective, luciferase-expressing HIV-1 genome (pSG3Δenv). Viral stocks of replication-competent HIV-1 isolates were generated by transfecting viral molecular clones into HEK293T cells. […] Inhibitors were prepared in 3-fold dilutions, mixed with 100 TCID50 of a virus, and then incubated for 1 h at room temperature. […] Luciferase activity was measured as described above.

[2] = target: T1, HIV-1HXB2 Env (Human immunodeficiency virus type 1 group M subtype B, UniProt P04578); assay: HIV-1HXB2 Env-mediated cell-cell fusion (HL2/3 effector, TZM-bl target, luciferase reporter); assay type: cell-based
T1 construct: HL2/3 cells, which stably express high levels of Env, Gag, Tat, Rev, and Nef proteins of the integrated HIV-1 molecular clone HXB2/3gpt; host or cells: HL2/3 cells (effector), cocultured with TZM-bl target cells
T1 sequence (P04578 512-856): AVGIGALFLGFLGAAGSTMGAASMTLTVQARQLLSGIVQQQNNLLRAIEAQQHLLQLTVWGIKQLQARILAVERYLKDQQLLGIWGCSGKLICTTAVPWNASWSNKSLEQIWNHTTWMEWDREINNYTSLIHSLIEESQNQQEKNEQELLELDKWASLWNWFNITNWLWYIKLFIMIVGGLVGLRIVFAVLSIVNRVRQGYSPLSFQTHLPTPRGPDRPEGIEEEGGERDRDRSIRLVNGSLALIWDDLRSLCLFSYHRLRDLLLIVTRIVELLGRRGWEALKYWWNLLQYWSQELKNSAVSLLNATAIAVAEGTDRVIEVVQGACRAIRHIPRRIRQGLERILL
Experimental: The inhibitory activities of inhibitors on HIV-1HXB2 Env-mediated cell-cell fusion were determined by a reporter gene assay based on the activation of an HIV LTR-driven luciferase cassette in TZM-bl cells (target) by HIV-1 tat from HL2/3 cells (effector). Briefly, 1 x 10^4/well of TZM-bl cells were plated in 96-well plates and incubated at 37°C overnight. Then, 3 x 10^4/well of HL2/3 cells were cocultured with target cells for 6 h at 37°C in the presence or absence of an inhibitor at graded concentrations. Luciferase activity was measured using luciferase assay reagents and a Luminescence Counter (Promega, Madison, Wisconsin, USA).

[3] = test system: HIV-1 pseudovirus, primary Env 92UG037.8; assay type: cell-based; settings: Env 92UG037.8, subtype A; mean ± SD of 3 assays in triplicate
Experimental: (§2) The inhibitory activities of inhibitors against HIV-1 pseudoviruses and replication-competent isolates were measured as described previously. Briefly, HIV-1 pseudoviruses were generated via the cotransfection of HEK293T cells with an Env-expressing plasmid and a backbone plasmid that encodes Env-defective, luciferase-expressing HIV-1 genome (pSG3Δenv). Viral stocks of replication-competent HIV-1 isolates were generated by transfecting viral molecular clones into HEK293T cells. Culture supernatants were harvested at 48 h posttransfection, and 50% tissue culture infectious doses (TCID50) in TZM-bl cells were determined. Inhibitors were prepared in 3-fold dilutions, mixed with 100 TCID50 of a virus, and then incubated for 1 h at room temperature. The mixture was added to TZM-bl cells (10^4/well), and the cells were incubated for additional 48 h at 37°C. Luciferase activity was measured as described above.

[4] = target: HIV-1JRCSF; assay type: cell-based
Experimental: as §2

[5] = test system: HIV-1 pseudovirus, primary Env CE1176_A3; assay type: cell-based; settings: Env CE1176_A3, subtype C; mean ± SD of 3 assays in triplicate
Experimental: as §2

[6] = target: HIV-1 NL4-3; assay type: cell-based; settings: Table 2; NL4-3, subtype B, X4; mean ± SD of 3 assays in triplicate
Experimental: as §2

[7] = test system: HIV-1 pseudovirus, primary Env SF162; assay type: cell-based; settings: Env SF162, subtype B; mean ± SD of 3 assays in triplicate
Experimental: as §2

[8] = test system: HIV-1 pseudovirus, primary Env PVO; assay type: cell-based; settings: subtype B, mean ± SD of 3 assays in triplicate
Experimental: as §2

[9] = test system: HIV-1 pseudovirus, primary Env B02; assay type: cell-based; settings: Env B02, subtype B'; mean ± SD of 3 assays in triplicate
Experimental: as §2

[10] = target: HIV-1 CH040.c/2625; assay type: cell-based; settings: Table 2; CH040.c/2625, subtype B, R5; mean ± SD of 3 assays in triplicate
Experimental: as §2

[11] = test system: HIV-1 pseudovirus, primary Env B04; assay type: cell-based; settings: Env B04, subtype B'; mean ± SD of 3 assays in triplicate
Experimental: as §2

[12] = test system: HIV-1 pseudovirus, primary Env ZM53M.PB12; assay type: cell-based; settings: Env ZM53M.PB12, subtype C; mean ± SD of 3 assays in triplicate
Experimental: as §2

[13] = test system: HIV-1 pseudovirus, primary Env CH119.10; assay type: cell-based; settings: Env CH119.10, subtype B/C; mean ± SD of 3 assays in triplicate
Experimental: as §2

[14] = test system: HIV-1 pseudovirus, primary Env TRO.11; assay type: cell-based; settings: Env TRO.11, subtype B; mean ± SD of 3 assays in triplicate
Experimental: as §2

[15] = test system: NL4-3I37T/N43K pseudovirus; assay type: cell-based, HIV-1; settings: T-20 resistant, mean ± SD of 3 assays in triplicate
Experimental: as §1

[16] = test system: NL4-3V38A pseudovirus; assay type: cell-based, HIV-1; settings: T-20 resistant, mean ± SD of 3 assays in triplicate
Experimental: as §1

[17] = test system: NL4-3G36S/V38M pseudovirus; assay type: cell-based, HIV-1; settings: T-20 resistant, mean ± SD of 3 assays in triplicate
Experimental: as §1

[18] = test system: NL4-3Q40H pseudovirus; assay type: cell-based, HIV-1; settings: T-20 resistant, mean ± SD of 3 assays in triplicate
Experimental: as §1

[19] = test system: NL4-3N43K pseudovirus; assay type: cell-based, HIV-1; settings: T-20 resistant, mean ± SD of 3 assays in triplicate
Experimental: as §1

[20] = test system: NL4-3I37T pseudovirus; assay type: cell-based, HIV-1; settings: T-20 resistant, mean ± SD of 3 assays in triplicate
Experimental: as §1

[21] = test system: NL4-3V38M pseudovirus; assay type: cell-based, HIV-1; settings: T-20 resistant, mean ± SD of 3 assays in triplicate
Experimental: as §1

[22] = test system: HIV-1 pseudovirus, primary Env BJOX002000.03.2; assay type: cell-based; settings: Env BJOX002000.03.2, subtype B/C; mean ± SD of 3 assays in triplicate
Experimental: as §2

[23] = test system: HIV-1 pseudovirus, primary Env R3A; assay type: cell-based; settings: subtype B, mean ± SD of 3 assays in triplicate
Experimental: as §2

[24] = Fig 1, NL4-3(D36G) pseudovirus, mean ± SD of three assays in triplicate, read-out: Anti-HIV activity (IC50, pM) NL4-3 entry
[25] = Table 4, NL4-3D36G, T-20 sensitive, mean ± SD of 3 assays in triplicate, value in parentheses behind the bound, read-out: IC50
[26] = Fig 1, replication-competent virus, mean ± SD of three assays in triplicate, read-out: Anti-HIV activity (IC50, pM) JRCSF infection
[27] = Table 2, JR-CSF, subtype B, R5, mean ± SD of 3 assays in triplicate, read-out: Mean IC50

Compound	IC50 [1, 24]	IC50 [1, 25]	IC50 [2]	IC50 [3]	IC50 [4, 26]	IC50 [4, 27]	IC50 [5]	IC50 [6]	IC50 [7]	IC50 [8]	IC50 [9]	IC50 [10]	IC50 [11]	IC50 [12]	IC50 [13]	IC50 [14]	IC50 [15]	IC50 [16]	IC50 [17]	IC50 [18]	also measured
CCCCCCCCCCCCCCCCCC(=O)NCCCC[C@H](NC(=O)[C@H](CCC(=O)O)NC(=O)[C@H](CC(C)C)NC(=O)[C@H](CCCCN)NC(=O)[C@H](CCCCN)NC(=O)[C@H](CC(C)C)NC(=O)[C@H](CCC(=O)O)NC(=O)[C@H](CCC(=O)O)NC(=O)[C@H](CCC(=O)O)NC(=O)[C@H](CC(N)=O)NC(=O)[C@H](CCCCN)NC(=O)[C@H](CCCCN)NC(=O)[C@H](CCC(N)=O)NC(=O)[C@H](CCC(N)=O)NC(=O)[C@H](CCC(=O)O)NC(=O)[C@H](CCC(=O)O)NC(=O)[C@H](C)NC(=O)[C@H](CCCCN)NC(=O)[C@H](CCCCN)NC(=O)[C@H](CC(C)C)NC(=O)[C@H](CC(C)C)NC(=O)[C@H](CCC(=O)O)NC(=O)[C@H](CCC(=O)O)NC(=O)[C@@H](NC(C)=O)[C@@H](C)CC)C(N)=O [LP-90] (Ac-IEELLKKAEEQQKKNEEELKKLEK(Stearoyl)-NH2)	3.55 pM	< 10 pM	0.0163 nM	0.00842 ± 0.00152 nM	5.4 pM	9.33 ± 1.97 pM	0.00877 ± 0.00195 nM	0.0768 ± 0.019 nM	0.00482 ± 0.00091 nM	0.0226 ± 0.0047 nM	0.0155 ± 0.00368 nM	0.0502 ± 0.0138 nM	0.0175 ± 0.00772 nM	0.00881 ± 0.00046 nM	0.0108 ± 0.00236 nM	0.00895 ± 0.0023 nM	46.3 ± 0.79 nM	8.25 ± 0.55 nM	2.37 ± 0.39 nM	4.17 ± 0.14 nM	IC50 [19]: 5.05 ± 0.13 nM; IC50 [20]: 0.51 ± 0.09 nM; IC50 [21]: 4.32 ± 0.78 nM
CCCCCCCCCCCCCCCC(=O)NCCCC[C@H](NC(=O)[C@H](CCC(=O)O)NC(=O)[C@H](CC(C)C)NC(=O)[C@H](CCCCN)NC(=O)[C@H](CCCCN)NC(=O)[C@H](CC(C)C)NC(=O)[C@H](CCC(=O)O)NC(=O)[C@H](CCC(=O)O)NC(=O)[C@H](CCC(=O)O)NC(=O)[C@H](CC(N)=O)NC(=O)[C@H](CCCCN)NC(=O)[C@H](CCCCN)NC(=O)[C@H](CCC(N)=O)NC(=O)[C@H](CCC(N)=O)NC(=O)[C@H](CCC(=O)O)NC(=O)[C@H](CCC(=O)O)NC(=O)[C@H](C)NC(=O)[C@H](CCCCN)NC(=O)[C@H](CCCCN)NC(=O)[C@H](CC(C)C)NC(=O)[C@H](CC(C)C)NC(=O)[C@H](CCC(=O)O)NC(=O)[C@H](CCC(=O)O)NC(=O)[C@@H](NC(=O)[C@H](CCCCN)NC(=O)[C@H](CCC(N)=O)NC(=O)[C@H](CCC(=O)O)NC(=O)[C@H](Cc1c[nH]c2ccccc12)NC(C)=O)[C@@H](C)CC)C(N)=O [LP-52, reference compound] (Ac-WEQKIEELLKKAEEQQKKNEEELKKLEK(Palmitoyl)-NH2)	6.12 ± 0.25 pM	–	0.0187 ± 0.00301 nM	0.0282 ± 0.00827 nM	7.47 ± 1.9 pM	8.02 ± 3.59 pM	0.0111 ± 0.00152 nM	0.0045 ± 0.00249 nM	0.0264 ± 0.00381 nM	0.0297 ± 0.00783 nM	0.0149 ± 0.00155 nM	0.0667 ± 0.0091 nM	0.0134 ± 0.00094 nM	0.0269 ± 0.00304 nM	0.0106 ± 0.00162 nM	0.0206 ± 0.00267 nM	–	–	–	–	IC50 [22]: 0.0368 ± 0.00293 nM; IC50 [23]: 0.00922 ± 0.0019 nM
CCCCCCCCCCCCCCCCCC(=O)NCCCC[C@H](NC(=O)[C@H](CCC(=O)O)NC(=O)[C@H](CC(C)C)NC(=O)[C@H](CCCCN)NC(=O)[C@H](CCCCN)NC(=O)[C@H](CC(C)C)NC(=O)[C@H](CCC(=O)O)NC(=O)[C@H](CCC(=O)O)NC(=O)[C@H](CCC(=O)O)NC(=O)[C@H](CC(N)=O)NC(=O)[C@H](CCCCN)NC(=O)[C@H](CCCCN)NC(=O)[C@H](CCC(N)=O)NC(=O)[C@H](CCC(N)=O)NC(=O)[C@H](CCC(=O)O)NC(=O)[C@H](CCC(=O)O)NC(=O)[C@H](C)NC(=O)[C@H](CCCCN)NC(=O)[C@H](CCCCN)NC(=O)[C@H](CC(C)C)NC(=O)[C@H](CC(C)C)NC(=O)[C@H](CCC(=O)O)NC(=O)[C@H](CCC(=O)O)NC(=O)[C@@H](NC(=O)[C@H](CCCCN)NC(=O)[C@H](CCC(N)=O)NC(=O)[C@H](CCC(=O)O)NC(=O)[C@H](Cc1c[nH]c2ccccc12)NC(C)=O)[C@@H](C)CC)C(N)=O [LP-80] (Ac-WEQKIEELLKKAEEQQKKNEEELKKLEK(Stearoyl)-NH2)	1.62 pM	< 10 pM	0.0126 nM	0.00372 ± 0.001 nM	2.45 pM	4.02 ± 2.63 pM	0.00294 ± 0.00019 nM	0.00245 ± 0.00051 nM	0.00312 ± 0.00037 nM	0.013 ± 0.00167 nM	0.0089 ± 0.00103 nM	0.0227 ± 0.00555 nM	0.00381 ± 0.00108 nM	0.00862 ± 0.00074 nM	0.0047 ± 0.00035 nM	0.00392 ± 0.00026 nM	3.79 ± 0.05 nM	0.23 ± 0.03 nM	0.07 ± 0.01 nM	0.13 ± 0.02 nM	IC50 [22]: 0.00848 ± 8e-05 nM; IC50 [23]: 0.00634 ± 0.00065 nM; IC50 [19]: 0.25 ± 0.02 nM; IC50 [20]: 0.05 nM; IC50 [21]: 0.13 ± 0.02 nM
enfuvirtide [Lipopeptide T-20, reference compound]	8560 ± 1050 pM	8770 ± 1020 pM	–	7.76 ± 1.04 nM	4460 ± 1400 pM	2970 ± 788 pM	8.4 ± 0.496 nM	–	17.6 ± 1.03 nM	69.7 ± 0.698 nM	10.4 ± 0.529 nM	30.9 ± 3.81 nM	5.65 ± 0.366 nM	22.7 ± 0.943 nM	11.5 ± 1.75 nM	7.05 ± 1.33 nM	6950 ± 1140 nM	2240 ± 33.1 nM	317.3 ± 1.65 nM	1150 ± 88 nM	IC50 [22]: 26.3 ± 2.77 nM; IC50 [23]: 6.88 ± 1.12 nM; IC50 [19]: 748 ± 41.9 nM; IC50 [20]: 1220 ± 120 nM; IC50 [21]: 1050 ± 74.8 nM
